Here are results for nine compounds from EP0330992A2, “Novel cyclobutane Derivatives, processes for their preparation and pharmaceutical compositions comprising them” (Nippon Kayaku Kabushiki Kaisha, priority 1988, dated 1989).

Common to all, as to type: cell-based
Test [1] concerns human cytomegalovirus (HCMV). The experiment in a line: Anticytomegaloviral plaque formation inhibition in human fetal fibroblast (Test Example 2, Method 2). The conditions noted are these: Human betaherpesvirus 5, 240 h, AO169 strain, 10 days, read-out: IC₅₀ HCMV. As for the experimental part: An activity against human cytomegalovirus (HCMV) which was DNA virus was examined by the following method.
Anticytomegaloviral activity was determined in terms of 50% inhibitory concentration (IC₅₀) by infecting 35 mm dish having a single layer of human fetal fibroblast with 100 PFU (plaque forming unit) of cytomegalovirus (AO169 strain), adsorbing for an hour, laying thereon a medium containing the compound of each concentration supplemented with 0.5% agarose and 2% fetal calf serum, culturing at 37°C for 10 days in a 5% (v/v) carbon dioxide gas incubator and measuring formation of plaque.

Test [2] relates to herpes simplex virus type 1 (HSV-I). Kind of test: Plaque formation inhibition in Vero cells (Test Example 1, Method 1). The conditions noted are these: Human alphaherpesvirus 1, 48 hours, read-out: IC₅₀ HSV-1. How it is done: (§1) Antiviral activity against herpes simplex virus type 1 (HSV-I) and herpes simplex virus type 2 (HSV-II) which were DNA viruses was examined by the following methods.
(§2) A 6 well multiplate bearing a single layr of Vero cells (derived from African green monkey kidney cell) was infected with 100-150 PFU (plaque forming unit) of virus. After (infection) at 37°C for an hour, agar medium (Eagle's MEM medium supplemented with 1.5% agar) containing a sample of each concentration was put on the single layer followed by culturing at 37°C for 48 hours in a 5% (v/v) carbon dioxide incubator. Thereafter, formation of plaque was measured to determine 50% inhibitory concentration (IC₅₀).

Test [3] concerns mouse leukemia L1210 cells. Kind of test: Growth inhibition of L1210 cells, cell count (Test Example 5, Method 6). The conditions noted are these: 50% growth inhibitory concentration, 48 hours, read-out: IC₅₀ L1210. How it is done:
(§3) Anticancer activity against human uterine cervical cancer HeLa S₃, mouse leukemia L1210 and P388 cells was examined by the following method. P388 and L1210 cells were inoculated on a 24 well plate and the compound was added thereto followed by incubation at 37°C for 48 hours in 5% CO₂. The number of cells after the incubation was counted with a Caulter counter. The growth inhibition rate of the treated group to the control group was calculated according to the equation below and 50% growth inhibitory concentration (IC₅₀, µg/ml) was determined by the Litchfield method. Growth inhibition rate (%) = [1 - (NT-N₀)/(Nc-N₀)] x 100 wherein NT = cell count of the treated group N₀ = cell count at the onset of incubation Nc = cell count of the control group

The subject of test [4] is human uterine cervical cancer HeLa S₃. The experiment in a line: Growth inhibition of HeLa S3 cells, Methylene Blue staining (Test Example 5, Method 5). The note with it: 50% growth inhibitory concentration, 72 hours, read-out: IC₅₀ HeLaS₃. How it is done: Anticancer activity against human uterine cervical cancer HeLa S₃, mouse leukemia L1210 and P388 cells was examined by the following method. HeLa S₃ cells were prepared in a concentration of 7.5 x 10³ cells/ml and inoculated on a 96 well flat bottom plate by 0.2 ml/well each. After culturing at 37°C for 24 hours in a 5% CO₂ incubator, 10 µl of the compound was added thereto followed by culturing for 72 hours. After culturing, the culture medium of each well was withdrawn and fixed with methanol. Then, 0.1 ml/well each of 0.05% Methylene Blue/10 mM-Tris-HCl (pH 8.5) solution was added to stain at room temperature for 30 minutes. After withdrawing the dyeing solution from each well using an aspirator, the well was washed 3 times with pure water. After adding 3% HCl in a ratio of 0.2 ml/well, the well was sealed and allowed to stand at room temperature for about 24 hours and the dye was then extracted from the cells. Absorbance of each well at 660 nm was measured with Dynatec microplate reader. The growth inhibition rate treated wells to the control wells were calculated according to the equation below and 50% growth inhibitory concentration (IC₅₀, µg/ml) was determined by the Litchfield method. Growth inhibition rate (%) = (1 - A₁/A₀) x 100 wherein A₁ = Absorbance of the treated group A₀ = Absorbance of the control group

The test system of test [5] is mouse leukemia P388 cells. The experiment in a line: Growth inhibition of P388 cells, cell count (Test Example 5, Method 6). The note with it: 50% growth inhibitory concentration, 48 hours, read-out: IC₅₀ P338. As for the experimental part:
as §3

In the next test the test system is AIDS virus (HIV). Kind of test: Anti-HIV activity in MT-4 cells, viral antigen by fluorescent antibody method (Test Example 4, Method 4). The conditions noted are these: Human immunodeficiency virus 1, MT4, 96 h, read-out: IC₅₀ HIV. How it is done:
Activity against AIDS virus (HIV) which was RNA virus was examined by the following method.
In an anti-HIV (human immunodeficiency virus) active 24 well tray were charged about 50,000/ml of MT-4 cells. Further […] of a solution containing a definite amount of the compound of this invention was added thereto. After culturing at 37°C for 2 hours in a 5% (v/v) carbon dioxide gas incubator, 10³-10⁴ infection units of HIV were added thereto. After culturing for 4 days, a part of the culture solution was smeared on a slide glass and fixed with acetone. Then, occurrence of viral antigen was observed by fluorescent antibody method.
As primary antibody in the fluorescent antibody method, serum from the patient with AIDS was used and FITC-labeled anti-human IgG was used as secondary antibody.

Test [6] relates to herpes simplex virus type 2 (HSV-II). Kind of test: Plaque formation inhibition in Vero cells (Test Example 1, Method 1). The conditions noted are these: Human alphaherpesvirus 2, 48 hours, read-out: IC₅₀ HSV-2. As for the experimental part:
as §1, §2

A further test deals with hepatitis B virus (HBV). Kind of test: Hepatitis B virus DNA in liver cell line HB611, Southern method (Test Example 3, Method 3). The note with it: 360 h, HB611 cells, 15 days, HBV DNA by Southern method, read-out: IC₅₀ HBV. As for the experimental part:
Activity against hepatitis B virus (HBV) which was DNA virus was examined by the following method.
Incubated liver cell line HB611 (Proc. Natl. Acad. Sci. USA, 84 (1987), 444) capable of producing and releasing activated hepatitis B virus was cultured in modified Eagle's medium (GIBCO) at 37°C in 5% CO₂ in the presence 10% fetal calf serum, 200 µg/ml of G418 and 100 U/ml each of penicillin and streptomycin. The culture was inoculated on a 6 well plate in 5 x 10⁴ cells/well (35 mm). When 50% confluent state was achieved 1 or 2 days after, a definite quantity of this compound was added and the mixture was cultured. While exchanging with a medium containing the compound in the same concentration every 3 other days, incubation was continued for 15 days. Thereafter the medium was removed. The cells were treated with 0.5 ml of lysis buffer (10 mM Tris HCl, pH 7.8/5 mM Na₂EDTA, 1% SDS/0.1 mg/ml Pronase K) at 37°C for an hour. The resulting DNA was treated with RNase and purified by treatment with phenol and chloroform and then precipitation with ethanol.
Then, 5 µg of DNA was treated with Hind III and DNA pattern was analyzed by the Southern method using as a probe ³²P-labeled hepatitis B virus DNA.

≈ marks a conversion by molar mass, not a printed value.

For the compound `O=c1[nH]cnc2c1ncn2[C@@H]1C[C@H](CO)[C@H]1O` (racemic) [Compound 4-2, (±)-9-[(1β,2α,3β)-2-hydroxy-3-hydroxymethylcyclobutan-1-yl]hypoxanthine], the IC50 in test [1] came out at 2.8 µg/mL (≈ 11.9 µM).
As to `Nc1nc(Cl)c2ncn([C@@H]3C[C@H](CO)[C@H]3O)c2n1` (racemic) [Compound 4-3, (±)-2-amino-6-chloro-9-[(1β,2α,3β)-2-hydroxy-3-hydroxymethylcyclobutan-1-yl]purine], the IC50 in test [2] stood at 8.5 µg/mL (≈ 31.5 µM); in test [3], 8 µg/mL (≈ 29.7 µM); in test [4], 66 µg/mL (≈ 245 µM); in test [5], 12 µg/mL (≈ 44.5 µM); in test [1], 3.3 µg/mL (≈ 12.2 µM).
With `Nc1nc(N)c2ncn([C@@H]3C[C@H](CO)[C@H]3O)c2n1` (racemic) [Compound 4-4, (±)-2,6-diamino-9-[(1β,2α,3β)-2-hydroxy-3-hydroxymethylcyclobutan-1-yl]purine], the IC50 in test [2] was found to be 2.2 µg/mL (≈ 8.79 µM); in the test with AIDS virus (HIV), 3 µg/mL (≈ 12 µM); in test [3] it was 2.4 µg/mL (≈ 9.59 µM); in test [4], 21 µg/mL (≈ 83.9 µM); in test [5], 3.4 µg/mL (≈ 13.6 µM); in test [1], 0.69 µg/mL (≈ 2.76 µM).
On to `Nc1ncnc2c1ncn2[C@@H]1C[C@H](CO)[C@H]1O` (racemic) [Compound 7, (±)-9-[(1β,2α,3β)-2-hydroxy-3-hydroxymethylcyclobutan-1-yl]adenine], for which the IC50 in test [2] worked out at 4 µg/mL (≈ 17 µM); in test [3], 1.84 µg/mL (≈ 7.82 µM); in test [4], 6.97 µg/mL (≈ 29.6 µM); in test [5], 1.64 µg/mL (≈ 6.97 µM); in test [1], 0.45 µg/mL (≈ 1.91 µM).
On to `Nc1nc2c(ncn2[C@@H]2C[C@H](CO)[C@H]2O)c(=O)[nH]1` (racemic) [Compound 9, (±)-9-[(1β,2α,3β)-2-hydroxy-3-hydroxymethylcyclobutan-1-yl]guanine], for which the IC50 in test [6] is 0.31 µg/mL (≈ 1.23 µM); in test [2], 0.3 µg/mL (≈ 1.19 µM); in test [3], 2.56 µg/mL (≈ 10.2 µM); in test [4] it was 10.9 µg/mL (≈ 43.4 µM); in test [5] it was 2.57 µg/mL (≈ 10.2 µM); in test [1] it was 0.95 µg/mL (≈ 3.78 µM).
Regarding `[N-]=[N+]=N[C@@H]1[C@@H](CO)C[C@H]1n1cc(F)c(=O)[nH]c1=O` (racemic) [Compound 14, (±)-1-[(1β,2α,3β)-2-azido-3-hydroxymethylcyclobutan-1-yl]-5-fluoro-2,4(1H,3H)-pyrimidinedione], the IC50 with hepatitis B virus (HBV) is 32 µg/mL (≈ 125 µM); in test [1] it was 20 µg/mL (≈ 78.4 µM).
With `Cc1cn([C@@H]2C[C@H](CO)[C@H]2N)c(=O)[nH]c1=O` (racemic) [Compound 17, (±)-1-[(1β,2α,3β)-2-amino-3-hydroxymethylcyclobutan-1-yl]-5-methyl-2,4(1H,3H)-pyrimidinedione], the IC50 with hepatitis B virus (HBV) came out at 35 µg/mL (≈ 155 µM).
For `Nc1ncnc2c1ncn2[C@H]1C[C@@H](CO)C1` [Compound 2-1, 9-[(1β,3β)-3-hydroxymethylcyclobutan-1-yl]adenine], the IC50 in the test on AIDS virus (HIV) was 0.3 µg/mL (≈ 1.37 µM); in test [3] it was 63.1 µg/mL (≈ 288 µM); in test [4], 100 µg/mL (≈ 456 µM); in test [5], 34.1 µg/mL (≈ 156 µM); in the test on hepatitis B virus (HBV), 2 µg/mL (≈ 9.12 µM).
Regarding `Nc1nc2c(ncn2[C@H]2C[C@@H](CO)C2)c(=O)[nH]1` [Compound 2-2, 9-[(1β,3β)-3-hydroxymethylcyclobutan-1-yl]guanine], the IC50 in test [6] stood at 3.6 µg/mL (≈ 15.3 µM); in test [2], 1.6 µg/mL (≈ 6.8 µM); with AIDS virus (HIV), 10 µg/mL (≈ 42.5 µM); in test [3], 23.1 µg/mL (≈ 98.2 µM); in test [4], 30 µg/mL (≈ 128 µM); in test [5], 11.5 µg/mL (≈ 48.9 µM). Moreover, the IC50 in test [1] was found to be 2.6 µg/mL (≈ 11.1 µM).
